Activity calls are given as the source filed them. The calls are words filed in the database; no cut-off is given here.
Columns and labels:
[1] = target: T1, Delta-type opioid receptor (Homo sapiens, UniProt P41143); assay: Binding affinity to DOR (unknown origin) assessed as dissociation constant
Mus musculus [2] = assay: Antinociception activity in male Swiss Webster mouse model assessed as increase in maximum possible effect at 10 mg/kg, sc measured after 20 mins by warm-water tail immersion assay relative to control; type: functional
Mus musculus [3] = assay: Antinociception activity in male Swiss Webster mouse model assessed as effective dose administered as sc dose measured after 20 mins by warm-water tail immersion assay; type: functional
Mus musculus [4] = assay: Antinociception activity in male Swiss Webster mouse model assessed as increase in maximum possible effect at 0.1 mg/kg, sc measured after 30 to 60 mins post injection by warm-water tail immersion assay; type: functional, organism-based; conditions: time 30-60 min
Mus musculus [5] = assay: Antinociception activity in male Swiss Webster mouse model assessed as increase in maximum possible effect at 0.1 mg/kg, sc measured after 4 to 9 hrs post injection by warm-water tail immersion assay; type: functional, organism-based; conditions: time 4-9 hrs
[6] = Toxicity in Swiss Webster mouse assessed as reduction in locomotion activity administered as sc dose measured for 30 mins; type: organism-based; conditions: in vivo, 0.5 h, dose 0.1-0.5 mg/kg
[7] = Toxicity in Swiss Webster mouse assessed as effect on locomotion at 0.1 to 0.5 mg/kg,sc measured after 30 mins; type: organism-based; conditions: in vivo, 0.5 h, dose 0.1-0.5 mg/kg
[8] = Toxicity in Swiss Webster mouse assessed as effect on average speed at 0.1 to 0.5 mg/kg,sc measured after 30 mins; type: organism-based; conditions: in vivo, 0.5 h, dose 0.1-0.5 mg/kg
[9] = Abuse liability in male Sprague-Dawley rat assessed as reduction in reinforcement at 0.1 to 10 microg/kg administered per infusion; type: toxicity; conditions: in vivo, iv, dose 0.1-10 µg/kg
Mus musculus [10] = assay: Antinociception activity in male Swiss Webster mouse model assessed as effect on tail withdrawal latency at 0.1 mg/kg, sc pre incubated with naltrindole for 30 mins followed by compound addition and measured after 20 mins by warm water tail immersion assay; type: functional, organism-based
Mus musculus [11] = assay: Antinociception activity in male Swiss Webster mouse model assessed as effect on tail withdrawal latency at 0.1 mg/kg, sc pre incubated with nor-BNI for 24 hrs followed by compound addition and measured after 20 mins by warm water tail immersion assay; type: functional, organism-based
Mus musculus [12] = assay: Antinociception activity in male Swiss Webster mouse model assessed as effect on tail withdrawal latency at 0.1 mg/kg, sc pre incubated with naltrindole/nor-BNI for 24 hrs followed by compound addition and measured after 20 mins by warm water tail immersion assay; type: functional, organism-based
[13] = target: T1, Delta-type opioid receptor
[14] = target: Kappa-type opioid receptor (Mus musculus, UniProt P33534); assay: Displacement of [3H]diprenorphine from mouse KOR expressed in CHO cells assessed as dissociation constant incubated for […] by radioligand binding assay; type: cell-based
Mu-type opioid receptor = Mu-type opioid receptor (Mus musculus, UniProt P42866); assay: Displacement of [3H]Naloxone from mouse MOR expressed in CHO cells assessed as dissociation constant incubated for […] by radioligand binding assay; type: cell-based
[15] = target: T1, Delta-type opioid receptor; assay: Displacement of [3H]diprenorphine from human DOR expressed in CHO cells assessed as dissociation constant incubated for […] by radioligand binding assay; type: cell-based
Mus musculus [16] = assay: Antinociception activity in male Swiss Webster mouse model assessed as increase in maximum possible effect at 10 mg/kg, sc administered as single dose measured after 20 mins in presence of morphine by warm-water tail immersion assay relative to control; type: functional
Mus musculus [17] = assay: Antinociception activity in male Swiss Webster mouse model assessed as increase in maximum possible effect at 0.05 mg/kg, sc measured after 30 to 60 mins post injection by warm-water tail immersion assay; type: functional, organism-based; conditions: time 30-60 min
Mus musculus [18] = assay: Antinociception activity in male Swiss Webster mouse model assessed as increase in maximum possible effect at 0.05 mg/kg, sc measured after 3 to 5 hrs post injection by warm-water tail immersion assay; type: functional, organism-based; conditions: time 3-5 hrs
Mus musculus [19] = organism: Mus musculus; assay: Selectivity ratio of Kd for mouse MOR to Kd for mouse KOR
[20] = target: T1, Delta-type opioid receptor; assay: Agonist activity at human DOR expressed in CHO cells increase in [35S]GTPgammaS binding measured after […] by scintillation counter analysis relative to SNC80; type: functional, cell-based; conditions: filed as agonist

Kappa-type opioid receptor, sequence (P33534 whole entry): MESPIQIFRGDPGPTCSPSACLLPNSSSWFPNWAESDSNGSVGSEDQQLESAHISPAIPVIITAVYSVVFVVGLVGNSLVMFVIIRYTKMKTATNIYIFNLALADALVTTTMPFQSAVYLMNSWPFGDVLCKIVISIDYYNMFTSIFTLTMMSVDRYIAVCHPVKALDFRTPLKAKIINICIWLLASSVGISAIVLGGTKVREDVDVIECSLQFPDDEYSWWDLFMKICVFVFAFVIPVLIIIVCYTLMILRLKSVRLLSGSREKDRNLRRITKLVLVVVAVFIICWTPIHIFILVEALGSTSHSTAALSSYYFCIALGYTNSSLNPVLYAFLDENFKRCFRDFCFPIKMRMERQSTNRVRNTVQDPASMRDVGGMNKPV
T1 sequence (P41143 whole entry): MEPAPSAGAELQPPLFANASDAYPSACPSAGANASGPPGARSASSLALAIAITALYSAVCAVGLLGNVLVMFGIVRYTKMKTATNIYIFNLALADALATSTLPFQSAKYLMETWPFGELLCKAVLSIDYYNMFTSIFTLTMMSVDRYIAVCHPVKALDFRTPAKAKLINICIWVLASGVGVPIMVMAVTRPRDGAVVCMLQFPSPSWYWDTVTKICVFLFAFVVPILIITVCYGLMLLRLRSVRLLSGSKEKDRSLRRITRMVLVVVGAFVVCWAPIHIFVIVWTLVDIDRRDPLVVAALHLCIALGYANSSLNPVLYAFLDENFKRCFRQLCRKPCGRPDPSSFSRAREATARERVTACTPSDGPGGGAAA
Mu-type opioid receptor, sequence (P42866 whole entry): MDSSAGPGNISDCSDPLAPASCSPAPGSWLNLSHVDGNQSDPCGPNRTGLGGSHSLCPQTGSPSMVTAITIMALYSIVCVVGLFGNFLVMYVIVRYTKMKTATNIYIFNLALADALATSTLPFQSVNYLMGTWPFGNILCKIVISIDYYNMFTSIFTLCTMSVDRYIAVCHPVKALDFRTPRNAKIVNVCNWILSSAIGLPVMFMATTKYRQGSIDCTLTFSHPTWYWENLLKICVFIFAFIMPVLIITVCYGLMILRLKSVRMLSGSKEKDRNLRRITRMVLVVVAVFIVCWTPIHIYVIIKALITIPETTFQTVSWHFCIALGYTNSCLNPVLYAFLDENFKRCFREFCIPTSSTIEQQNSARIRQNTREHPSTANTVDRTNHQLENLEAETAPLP

Compound | MPE (Mus musculus [2]) | Kd [14] [nM] | Kd (Mu-type opioid receptor) [nM] | Kd [15] [nM] | other results
CN(C(=O)/C=C/c1ccoc1)[C@@H]1CC[C@@]2(O)[C@H]3Cc4ccc(O)c5c4[C@@]2(CCN3CC2CC2)[C@H]1O5.Cl [NALFURAFINE HYDROCHLORIDE] | 80% | – | – | – | Kd [1]: 116 nM; ED50 (Mus musculus [3]): 0.046 mg/kg; Activity (Mus musculus [4]): Active; Activity (Mus musculus [5]): inactive; Activity [6]: Dose-Dependent Effect; Activity [7]: Toxic; Activity [8]: Toxic; Activity [9]: Non-Toxic; Activity (Mus musculus [10]): inactive; Activity (Mus musculus [11]): inactive; Activity (Mus musculus [12]): inactive; EC50 [13]: 141 nM
CN(C(=O)CCc1ccoc1)[C@@H]1CC[C@@]2(O)[C@H]3Cc4cccc5c4[C@@]2(CCN3CC2CC2)[C@H]1O5.Cl | <=40% | 34.5 | 43.8 | 891 | MPE (Mus musculus [16]): 100%
CN(C(=O)/C=C/c1ccoc1)[C@H]1CC[C@@]2(O)[C@H]3Cc4ccc(O)c5c4[C@@]2(CCN3CC2CC2)[C@H]1O5.Cl | 100% | – | – | – | Kd [1]: 0.64 nM; ED50 (Mus musculus [3]): 0.037 mg/kg; EC50 [13]: 2.68 nM
CN1CC[C@]23c4c5ccc(O)c4O[C@H]2[C@@H](O)C=C[C@H]3[C@H]1C5 | – | – | – | – | Activity (Mus musculus [17]): Active; Activity (Mus musculus [18]): inactive
CN(C(=O)CCc1ccoc1)[C@H]1CC[C@@]2(O)[C@H]3Cc4ccc(O)c5c4[C@@]2(CCN3CC2CC2)[C@H]1O5.Cl | 40% | 0.13 | 0.18 | 0.59 | –
Cl.O=C(/C=C/c1ccco1)N[C@H]1CC[C@@]2(O)[C@H]3Cc4cccc5c4[C@@]2(CCN3CC2CC2)[C@H]1O5 | <=40% | 249 | 107 | 456 | Ratio (Mus musculus [19]): 0; MPE (Mus musculus [16]): 100%
CN(C(=O)/C=C/c1ccco1)[C@@H]1CC[C@@]2(O)[C@H]3Cc4cccc5c4[C@@]2(CCN3CC2CC2)[C@H]1O5.Cl | 40% | 4.11 | 215 | 2260 | Emax [20]: 82.1%
CN(C(=O)CCc1ccoc1)[C@@H]1CC[C@@]2(O)[C@H]3Cc4ccc(O)c5c4[C@@]2(CCN3CC2CC2)[C@H]1O5.Cl | 100% | 0.28 | 0.53 | 8.42 | –
C=CCN1CC[C@]23c4c5ccc(O)c4O[C@H]2C(=O)CC[C@@]3(O)[C@H]1C5 [NALOXONE] | – | – | – | – | MPE (Mus musculus [16]): <=40%
CN(C(=O)CCc1ccco1)[C@@H]1CC[C@@]2(O)[C@H]3Cc4cccc5c4[C@@]2(CCN3CC2CC2)[C@H]1O5.Cl | 40% | 50.4 | 93.6 | 532 | –
Cl.O=C(/C=C/c1ccco1)N[C@@H]1CC[C@@]2(O)[C@H]3Cc4ccc(O)c5c4[C@@]2(CCN3CC2CC2)[C@H]1O5 | 80% | 0.17 | 0.3 | 12.8 | –
Cl.O=C(CCc1ccoc1)N[C@H]1CC[C@@]2(O)[C@H]3Cc4cccc5c4[C@@]2(CCN3CC2CC2)[C@H]1O5 | <=40% | 161 | 54.5 | 154 | Ratio (Mus musculus [19]): 0; Emax [20]: 93.1%; MPE (Mus musculus [16]): 80%
CN(C(=O)CCc1ccco1)[C@H]1CC[C@@]2(O)[C@H]3Cc4ccc(O)c5c4[C@@]2(CCN3CC2CC2)[C@H]1O5.Cl | 100% | 0.12 | 0.15 | 0.37 | –
CN(C(=O)CCc1ccco1)[C@@H]1CC[C@@]2(O)[C@H]3Cc4ccc(O)c5c4[C@@]2(CCN3CC2CC2)[C@H]1O5.Cl | 100% | 0.32 | 0.66 | 7.32 | –
